Test results taken from ChEMBL document CHEMBL1806377, “Synthesis and evaluation of a radioiodinated trisaccharide derivative as a synthetic substrate for a sensitive N-acetylglucosaminyltransferase V radioassay” (Bioorg Med Chem, 2011).

How the values were obtained:
Conditions in all cases: tested as the 125I-labelled form
[1] = biological target: T1, Alpha-1,6-mannosylglycoprotein 6-beta-N-acetylglucosaminyltransferase A (Rattus norvegicus) (UniProt Q08834); assay: Activity at Wistar rat lung GnT-V assessed per mg of protein after 4 hrs by radio HPLC analysis
T1 sequence (whole entry): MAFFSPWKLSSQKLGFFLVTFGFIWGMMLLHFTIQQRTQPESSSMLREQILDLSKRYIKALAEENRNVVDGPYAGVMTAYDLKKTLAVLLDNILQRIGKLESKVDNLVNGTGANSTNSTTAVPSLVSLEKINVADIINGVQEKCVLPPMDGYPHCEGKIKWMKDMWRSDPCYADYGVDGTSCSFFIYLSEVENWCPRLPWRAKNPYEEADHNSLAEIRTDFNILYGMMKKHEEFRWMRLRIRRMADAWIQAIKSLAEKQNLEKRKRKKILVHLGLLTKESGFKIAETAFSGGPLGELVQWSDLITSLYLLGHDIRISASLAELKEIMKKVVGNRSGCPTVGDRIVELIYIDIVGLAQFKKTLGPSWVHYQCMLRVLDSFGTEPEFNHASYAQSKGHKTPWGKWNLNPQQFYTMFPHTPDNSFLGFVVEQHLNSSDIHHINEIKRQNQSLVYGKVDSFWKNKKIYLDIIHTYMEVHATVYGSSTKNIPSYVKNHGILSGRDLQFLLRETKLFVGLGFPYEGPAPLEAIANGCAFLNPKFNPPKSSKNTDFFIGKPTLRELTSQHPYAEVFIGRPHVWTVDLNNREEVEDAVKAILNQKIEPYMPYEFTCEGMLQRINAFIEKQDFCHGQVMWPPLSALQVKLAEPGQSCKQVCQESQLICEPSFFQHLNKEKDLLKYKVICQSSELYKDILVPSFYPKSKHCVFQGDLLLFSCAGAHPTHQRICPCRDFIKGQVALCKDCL

[2] = biological target: T1, Alpha-1,6-mannosylglycoprotein 6-beta-N-acetylglucosaminyltransferase A (Rattus norvegicus); assay: Activity at Wistar rat brain GnT-V assessed per mg of protein after 4 hrs by radio HPLC analysis
[3] = biological target: T1, Alpha-1,6-mannosylglycoprotein 6-beta-N-acetylglucosaminyltransferase A (Rattus norvegicus); assay: Activity at Wistar rat stomach GnT-V assessed per mg of protein after 4 hrs by radio HPLC analysis
[4] = biological target: T1, Alpha-1,6-mannosylglycoprotein 6-beta-N-acetylglucosaminyltransferase A (Rattus norvegicus); assay: Activity at Wistar rat serum GnT-V assessed per mg of protein after 4 hrs by radio HPLC analysis
[5] = biological target: T1, Alpha-1,6-mannosylglycoprotein 6-beta-N-acetylglucosaminyltransferase A (Rattus norvegicus); assay: Activity at Wistar rat intestine GnT-V assessed per mg of protein after 4 hrs by radio HPLC analysis
[6] = biological target: T1, Alpha-1,6-mannosylglycoprotein 6-beta-N-acetylglucosaminyltransferase A (Rattus norvegicus); assay: Activity at Wistar rat heart GnT-V assessed per mg of protein after 4 hrs by radio HPLC analysis
[7] = biological target: T1, Alpha-1,6-mannosylglycoprotein 6-beta-N-acetylglucosaminyltransferase A (Rattus norvegicus); assay: Activity at Wistar rat kidney GnT-V assessed per mg of protein after 4 hrs by radio HPLC analysis
[8] = biological target: T1, Alpha-1,6-mannosylglycoprotein 6-beta-N-acetylglucosaminyltransferase A (Rattus norvegicus); assay: Activity at Wistar rat liver GnT-V assessed per mg of protein after 4 hrs by radio HPLC analysis
[9] = biological target: T1, Alpha-1,6-mannosylglycoprotein 6-beta-N-acetylglucosaminyltransferase A (Rattus norvegicus); assay: Activity at Wistar rat spleen GnT-V assessed per mg of protein after 4 hrs by radio HPLC analysis

Activity [1]: 179 pmol/h | Activity [2]: 261 pmol/h | Activity [3]: 116 pmol/h | Activity [4]: 1280 pmol/h | Activity [5]: 774 pmol/h | Activity [6]: 31 pmol/h | Activity [7]: 671 pmol/h | Activity [8]: 48 pmol/h | Activity [9]: 244 pmol/h
SMILES: CC(=O)N[C@H]1[C@H](O[C@@H]2[C@@H](OC[C@H]3O[C@@H](OCCc4ccc(I)cc4)[C@H](O)[C@@H](O)[C@@H]3O)O[C@H](CO)[C@@H](O)[C@@H]2O)O[C@H](CO)[C@@H](O)[C@@H]1O
